“Also recorded” adds a separate entry of the source.
Experiments:
[1] = system: Type II collagen-induced arthritis (CIA); assay: Collagen-induced arthritis (CIA) mouse model, clinical assessment; type: in vivo, DBA/1 LacJ mice; details: vs saline control mice; for number of involved (arthritic) paws: Formula III 40 mg/kg i.p. ×3/week or gavaged ×5/week, Enbrel 100 μg i.p. ×3/week, prednisolone 10 mg/kg gavaged ×5/week
Source text: Type II collagen-induced arthritis (CIA) in mice is an accepted experimental model of arthritis with a number of pathological, immunological and genetic features in common with rheumatoid arthritis. This disease is induced by immunization of susceptible strains of mice with type II collagen, the major component of joint cartilage. A progressive, inflammatory arthritis develops in the majority of immunized animals, which is characterized clinically by erythema and edema, with affected paw width increases of typically 100%. A clinical scoring index has been developed to assess disease progression to joint distortion and spondylitis. […] Immunological laboratory findings include high antibody levels to type II collagen and hypergammaglobulinemia.
(§1) This study was designed to evaluate the anti-inflammatory and anti-arthritic activity of compound of Formula III using the CIA model by observing changes in immune parameters due to treatment. The animals were administered oral corticosteroid, Enbrel, an injectable TNF inhibitor, and compound of Formula III using both oral and parenteral delivery. Seventy-five DBA/1 LacJ mice 8-10 weeks of age were obtained from Jackson Labs and quarantined in our facility for 10 days prior to experimentation. All mice weighed >16 grams at the start of the experiment. Mice were pre-bled by retro-orbital puncture, and injected with 100 μg Bovine type II collagen in Freund's complete adjuvant (FCA) intradermally at the base of the tail. Mice were monitored by daily examination for the onset of disease. Mice that developed CIA between 20 days post immunization and 42 days post immunization were assigned to one of five treatment groups on a rotational basis (to normalize onset date), and ten mice were assigned to each group. For administration, compound of Formula III was solubilized in sterile saline. To facilitate drugs delivered by oral administration, carboxymethylcellulose was added to a final concentration of 4% in all gavage solutions. Compounds were administered according to the following schedule: • Group 1. 100 μl sterile saline vehicle injected intraperitoneally (i.p.) ×3/week. • Group 2. 100 μl sterile saline containing compound of Formula III at 40 mg/kg injected i.p. ×3/week. • Group 3. 100 μl sterile saline containing 100 μg Enbrel injected i.p. ×3/week. • Group 4. 100 μl sterile saline containing compound of Formula III at 40 mg/kg gavaged ×5/week. • Group 5. 100 μl sterile saline containing prednisolone 10 mg/kg gavaged ×5/week.
Mice were weighed weekly, and overall health status noted. Arthritic animals were clinically assessed by visual inspection five times per week, and paw swelling quantified by caliper measurements made three times per week, until seven weeks after the initial onset of arthritis. All animals were assessed individually from the time of disease onset, and the appropriate findings were entered into clinical report forms.

[2] = system: total serum Ig; assay: Total serum immunoglobulin levels in CIA mice (ELISA); type: in vivo, DBA/1 LacJ mice; details: Prednisolone 10 mg/kg gavaged ×5/week; Formula III 40 mg/kg i.p. ×3/week
Description: This study was designed to evaluate the anti-inflammatory and anti-arthritic activity of compound of Formula III using the CIA model by observing changes in immune parameters due to treatment. The animals were administered oral corticosteroid, Enbrel, an injectable TNF inhibitor, and compound of Formula III using both oral and parenteral delivery. Seventy-five DBA/1 LacJ mice 8-10 weeks of age were obtained from Jackson Labs and quarantined in our facility for 10 days prior to experimentation. All mice weighed >16 grams at the start of the experiment. Mice were pre-bled by retro-orbital puncture, and injected with 100 μg Bovine type II collagen in Freund's complete adjuvant (FCA) intradermally at the base of the tail. Mice were monitored by daily examination for the onset of disease. Mice that developed CIA between 20 days post immunization and 42 days post immunization were assigned to one of five treatment groups on a rotational basis (to normalize onset date), and ten mice were assigned to each group. For administration, compound of Formula III was solubilized in sterile saline. […]
Serum Ig levels was assessed using an ELISA assay. […] The plate was read at 405 nm using a Photospectrometer (Molecular Devices), and the data analyzed using the SOFTmax analytical software package. […]

[3] = system: anti-type II collagen antibody; type: in vivo, DBA/1 LacJ mice; details: after seven weeks of treatment, Prednisolone 10 mg/kg gavaged ×5/week, Formula III 40 mg/kg i.p. ×3/week; for terminal anti-CII antibody levels compared with control mice: p<0.01
Description: as §1
All mice were pre-bled prior to the start of the trial, subsequently at onset of arthritis and at the completion of the trial. Sera were separated and stored at −80° C. ELISA assays were performed to determine anti-type II collagen antibody levels and total immunoglobulin levels.
ELISA plates (Nunc-Immuno plates, Denmark) were coated with 100 μl of coating buffer (0.4M phosphate buffer ph7.6) containing 5 μg of type II collagen, at 4° C. overnight. Plates were washed 3 times with PBS containing 0.05% Tween 20 (Sigma, St. Louis, Mo.) and non specific binding was blocked by PBS containing 5% non fat milk overnight at 4° C. Mouse sera diluted to 1/100 in 5% milk/PBS was added to each well and incubated overnight at 4° C. […] The resulting optical density was measured at 405 nm by using a UV max spectrophotometer (Molecular Devices, CA). […] Antibody binding was expressed as OD405 units-blank.

[4] = system: lymph node cells; assay: Lymph node cell mitogen and antigen proliferative responses (MTT) from treated CIA mice; type: in vivo, DBA/1 LacJ mice; details: mice treated 40 mg/kg i.p. ×3/week; p<0.05
Description: This study was designed to evaluate the anti-inflammatory and anti-arthritic activity of compound of Formula III using the CIA model by observing changes in immune parameters due to treatment. The animals were administered oral corticosteroid, Enbrel, an injectable TNF inhibitor, and compound of Formula III using both oral and parenteral delivery. Seventy-five DBA/1 LacJ mice 8-10 weeks of age were obtained from Jackson Labs and quarantined in our facility for 10 days prior to experimentation. All mice weighed >16 grams at the start of the experiment. […] Mice were monitored by daily examination for the onset of disease. […]
Spleen and lymph nodes were removed at sacrifice, and mitogen responses to Con A and LPS, and antigen proliferative responses to type II collagen were determined using standard techniques. […] After incubation at 37° C. overnight, the optical density at 590 nm was read using a microplate photospectrometer (Molecular Devices, CA). The mean and OD values, which provide a measure of cell proliferation, were recorded for each cell sample with respect to antigen stimulation. Antigen specific responses were expressed as (OD590 [Stimulated Culture]−OD590 [Spontaneous proliferation culture])/OD590 [Spontaneous proliferation culture].

[5] = system: plasma lipoprotein cholesterol and triglyceride; assay: Antilipidemic activity in hamsters fed hypercholesterolemic diet; type: in vivo, Syrian Golden hamsters; details: day 8 of treatment
Source text: Eighty-five male Syrian Golden hamsters (F1B strain, BioBreeders, Fitchburg Mass.) approximately 8-10 weeks of age were acclimated to individual hanging polystyrene cages with bedding for 1 week and then fed a semipurified hypercholesterolemic diet (HCD) containing 25% casein, 20% hydrogenated coconut oil, 2% safflower oil, and 0.15% cholesterol by weight for 2 weeks prior to initiation of the experimental treatments (Table 1). Hamsters were then bled (Week 0) following an overnight fast (16 hr) to determine plasma concentrations of total cholesterol, HDL-C, nonHDL-C, and triglycerides and divided into 17 groups (n=5/group) with similar starting plasma HDL-C levels, and administered either compound of Formula II or vehicle once per day for 14 days.
Plasma total cholesterol, HCL-C, nonHDL-C, and triglycerides were then measured at day 8 (prior to gavage that day) and at day 15 (24 hr after last gavage) following and overnight fast (16 hr). Hamsters were maintained in accordance with the guidelines of the Animal Care Committee at the University of Massachusetts-Lowell Research Foundation and the guidelines prepared by the Committee on the Care and Use of Laboratory Animals of the Institute of Laboratory Animal Resources, National Research Council (DHEW publication no 85-23, revised 1985). Hamsters were housed in an environmentally controlled room with an alternating 12-h light/dark cycle and given ad libitum access to food and water except when food is withheld for the experimental protocols.
Blood was collected via the retro-orbital sinus into heparinized tubes from hamsters fasted for 16 h at days 0, 8, and 15. Plasma was harvested after centrifugation at 1500-×g at room temperature for 10 min and plasma total cholesterol and triglyceride concentrations were measured enzymatically. Plasma LDL cholesterol (combination of very low-density, intermediate, and low-density lipoprotein-cholesterol) was precipitated with phosphotungstate reagent and HDL cholesterol was measured in the supernatant. The concentration of LDL cholesterol was calculated as the difference between plasma TC and HDL cholesterol. The accuracy and precision of the procedures used for the measurements of plasma TC and HDL cholesterol were maintained by participation in the Lipid Standardization Program of the Centers for Disease Control and the National Heart, Blood and Lung Institute (Atlanta, Ga.). All reagents used were supplied by Sigma-Aldrich (St. Louis, Mo.). All assays were performed using a Cobas Mira Plus® (Cobas Mira Plus® is a registered trademark of Roche Diagnostic Systems, Inc.) clinical chemistry autoanalyzer using 10 μl of plasma for each sample (Roche Pharmaceuticals, Basel, Switzerland).

[6] = gavaged ×5/week (Formula III 40 mg/kg; prednisolone 10 mg/kg)
[7] = injected i.p. ×3/week (Formula III 40 mg/kg; Enbrel 100 μg)

Which results are given for `C[C@]12C=CC(=O)C=C1CC[C@@H]1[C@@H]2[C@@H](O)C[C@@]2(C)[C@H]1CC[C@]2(O)C(=O)CO` [Prednisolone, prednisolone, reference compound]?
number of involved (arthritic) paws [1]: significantly lower number of arthritic paws; arthritis score [1, 6]: significant reduction; arthritis score ([1]; gavaged ×5/week (Formula III 40 mg/kg; prednisolone 10 mg/kg), listed as prednisolone): significantly reduced the arthritis score; reduction of total serum Ig levels at the terminal bleed vs control mice [2]: not significantly different; terminal anti-CII antibody levels compared with titers at disease onset [3]: minor decrease; terminal anti-CII antibody levels compared with control mice [3]: significant reduction

How did the “number of involved (arthritic) paws” value [1] turn out when `COc1cccc2c1[n+]([O-])c1cccc(O)c1[n+]2[O-]` [compound of Formula III] was run?
Its value is “did not significantly influence the number of involved paws”.

And the arthritis score [1, 6]?
The arthritis score was “did not exert a statistically significant effect”.

What about the arthritis score [1, 7] of the same compound?
The arthritis score was “marked effect; also recorded: significant reduction”.

And the “lymph node cell response to LPS” value [4]?
Its value is “significant reduction”.

What about the “plasma HDL-C change compared to vehicle control” value (from here on “plasma HDL-C change”) ([5]; 0.9 mg/kg once per day) of the same compound?
Its value is −2%.

What about the “plasma nonHDL-C change compared to vehicle control” value (“plasma nonHDL-C change” below) ([5]; 0.9 mg/kg once per day) of the same compound?
Its value is −36%.

And the “plasma total cholesterol change compared to vehicle control” value (from here on “plasma total cholesterol change”) ([5]; 0.9 mg/kg once per day)?
The value was −27%.

What about the “plasma triglycerides change compared to vehicle control” value (“plasma triglycerides change” below) ([5]; 0.9 mg/kg once per day) of the same compound?
Its value is −37%.

What about the “plasma HDL-C change” value ([5]; 1.8 mg/kg once per day) of the same compound?
Its value is 7%.

What about the “plasma nonHDL-C change” value ([5]; 1.8 mg/kg once per day) of the same compound?
Its value is −24%.

And the “plasma total cholesterol change” value ([5]; 1.8 mg/kg once per day)?
The value was −17%.

What about the “plasma triglycerides change” value ([5]; 1.8 mg/kg once per day) of the same compound?
Its value is −14%.

And the “plasma HDL-C change” value ([5]; 3.6 mg/kg once per day)?
Its value is −4%.

What about the “plasma nonHDL-C change” value ([5]; 3.6 mg/kg once per day) of the same compound?
Its value is −26%.

And the “plasma total cholesterol change” value ([5]; 3.6 mg/kg once per day)?
Its value is −21%.

And the “plasma triglycerides change” value ([5]; 3.6 mg/kg once per day)?
Its value is −20%.

And the “reduction of total serum Ig levels at the terminal bleed vs control mice” value [2]?
Its value is “not significantly different”.

And the “terminal anti-CII antibody levels compared with titers at disease onset” value [3]?
Its value is “maintenance of titers equivalent to the levels at onset”.

And the “terminal anti-CII antibody levels compared with control mice” value [3]?
Its value is “significant reduction”.

Enbrel was tested. Which “number of involved (arthritic) paws” value [1] did it give?
Its value is “significantly lower number of arthritic paws”.

And the arthritis score [1, 7]?
Its arthritis score is “significantly reduced the arthritis score; also recorded: significant reduction”.
